Reference: PubChem BioAssay (NCI)
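48-hour exposure; five concentrations; linearly interpolated endpoints. The concentration for full growth arrest is given as TGI.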

Assays:
Assay in all cases: NCI-60 cell line screen, 48 h
SF-539 CNS = test system: SF-539 CNS
KM12 colon = test system: KM12 colon
MCF7 breast = test system: MCF7 breast
HT29 colon = test system: HT29 colon
SK-MEL-2 melanoma = test system: SK-MEL-2 melanoma
BT-549 breast = test system: BT-549 breast
SK-MEL-5 melanoma = test system: SK-MEL-5 melanoma
MALME-3M melanoma = test system: MALME-3M melanoma
M14 melanoma = test system: M14 melanoma
MOLT-4 leukemia = test system: MOLT-4 leukemia
K-562 leukemia = test system: K-562 leukemia
NCI-H460 lung = test system: NCI-H460 lung
SW-620 colon = test system: SW-620 colon
LOX IMVI melanoma = test system: LOX IMVI melanoma
U251 CNS = test system: U251 CNS
SK-OV-3 ovarian = test system: SK-OV-3 ovarian
NCI-H23 lung = test system: NCI-H23 lung
A549 NSCLC = test system: A549 NSCLC
SNB-19 CNS = test system: SNB-19 CNS

SMILES | TGI (SF-539 CNS) [µM] | TGI (KM12 colon) [µM] | TGI (MCF7 breast) [µM] | TGI (HT29 colon) [µM] | TGI (SK-MEL-2 melanoma) [µM] | TGI (BT-549 breast) [µM] | TGI (SK-MEL-5 melanoma) [µM] | TGI (MALME-3M melanoma) [µM] | TGI (M14 melanoma) [µM] | TGI (MOLT-4 leukemia) [µM] | TGI (K-562 leukemia) [µM] | TGI (NCI-H460 lung) [µM] | TGI (SW-620 colon) [µM] | TGI (LOX IMVI melanoma) [µM] | TGI (U251 CNS) [µM] | TGI (SK-OV-3 ovarian) [µM] | TGI (NCI-H23 lung) [µM] | TGI (A549 NSCLC) [µM] | TGI (SNB-19 CNS) [µM]
COc1ccc(N2C(=O)C3c4[nH]c5ccc(OC)cc5c4C4CCC(c5ccccc5)CC4C3C2=O)cc1 (stereo not drawn) | 13.9 | > 56.3 | > 85.4 | > 40.5 | 47.4 | 58.7 | > 100 | 30.3 | > 56.8 | 16.9 | > 43.9 | 21.7 | 25.1 | 56.3 | 22.8 | 26.1 | 46.6 | 40.3 | 28.8
C/C=C/C(O)P(=O)(OC)OC (stereo not drawn) | 0.74 | 0.936 | 1.01 | 1.11 | 1 | 1.8 | 0.483 | 1.17 | 0.463 | 11.2 | 2.63 | 0.93 | 0.982 | 0.392 | 0.872 | 2.51 | 1.2 | 1.07 | 1.53
CCCCCCCCCCCCCCCCCCOC(COP(=O)(O)OCC1OC(n2cc(F)c(=O)[nH]c2=O)CC1O)COP(=O)(O)OCC1OC(n2ccc(N)nc2=O)C(O)C1O (stereo not drawn) | 31.1 | > 100 | > 100 | > 100 | > 100 | > 93.2 | > 100 | > 100 | 62.5 | > 79.8 | > 100 | > 65.3 | > 100 | > 100 | 50.7 | > 100 | > 100 | > 63.6 | 41.2
NC(=S)NN=C1Cc2ccccc2C1 | > 100 | > 100 | > 100 | > 100 | > 100 | > 100 | > 100 | > 100 | > 100 | > 100 | > 100 | > 100 | > 100 | > 100 | > 100 | > 100 | > 100 | > 100 | > 100
CCOC(=O)n1ccc2c(C(=O)OC)c(C(=O)OC)cc(/C(=C/C(=O)OC)C(=O)OC)c21 | > 100 | > 100 | > 100 | > 100 | > 100 | > 100 | > 100 | > 100 | > 100 | > 100 | > 100 | > 100 | > 100 | > 100 | > 100 | > 100 | > 100 | > 100 | > 100
O=C1C2CCCCC2C(=O)N1n1c(Cc2ccccc2)n[nH]c1=O (stereo not drawn) | > 100 | > 100 | > 100 | > 100 | > 100 | > 100 | > 100 | > 100 | > 100 | > 100 | > 100 | > 100 | > 100 | > 100 | > 100 | > 100 | > 100 | > 100 | > 100
O=c1oc2ccccc2c(O)c1Cc1ccccc1Cc1c(O)c2ccccc2oc1=O | > 100 | > 100 | > 100 | > 100 | > 100 | > 100 | > 100 | > 100 | > 100 | > 100 | > 100 | > 100 | > 100 | > 100 | > 100 | > 100 | > 100 | > 100 | > 100
N#CC(C#N)=C(N)/C(C#N)=C/c1ccc(O)c(O)c1 | > 100 | > 100 | > 100 | > 100 | > 100 | > 100 | > 100 | > 100 | > 100 | > 100 | > 100 | > 100 | > 100 | > 100 | > 100 | > 100 | > 100 | > 100 | > 100
CC(C)C(=O)/C=C/c1ccc(Cl)cc1Cl | 34 | 13.7 | 14.2 | 13.4 | 27.6 | 14.9 | 27.9 | 28.2 | 20 | 96.4 | > 100 | 23.4 | 7.92 | 13.5 | 25.2 | 33.7 | 26.8 | 30.4 | 29.3
O=C(O)C(C(F)(F)F)C(F)(F)F (tested in a mixture with another compound) | > 100 | > 100 | > 100 | > 100 | > 100 | > 100 | > 100 | > 100 | > 100 | > 100 | > 100 | > 100 | > 100 | > 100 | > 100 | > 100 | > 100 | > 100 | > 100
CNC(=O)OCC1=C(COC(=O)NC)CN(c2ccc(OC)cc2)C1 | > 100 | > 100 | > 100 | > 100 | > 100 | > 100 | > 100 | > 100 | > 100 | > 100 | > 100 | > 100 | > 100 | > 100 | > 100 | > 100 | > 100 | > 100 | > 100
COC(=O)C(Cc1ccccc1)NP(=O)(O)OCC1OC(n2ccc(N)nc2=O)C(O)C1O (stereo not drawn) | > 100 | > 100 | > 100 | > 100 | > 100 | > 100 | > 100 | > 100 | > 100 | > 100 | > 100 | > 100 | > 100 | > 100 | > 100 | > 100 | > 100 | > 100 | > 100
